Source: US10683272B2 (THE JOHNS HOPKINS UNIVERSITY, priority 2014, dated 2020)

Tests used:
[1] = test system: PSMA+ PC-3 PIP and PSMA− PC-3 flu tumors; test: small animal PET-CT imaging; format: in vivo, NOD/SCID mice; conditions: PET-CT
Description: Mice (n=3 for ^86Y-4 or ^86Y-6 and n=2 for ^86Y-5) were injected via the tail vein with 3.33-6.21 MBq (90-168 μCi) of radiotracer formulated in 100 μL of saline at pH ˜7. […] At different time points, anesthetized individual mice were placed in the prone position on the scanner gantry and secured with medical tape while the anesthesia flow rate was increased to 0.8 L/min. Images were reconstructed using the FORE/2D-OSEM method (two iterations, 16 subsets) and included correction for radioactive decay, scanner dead time, and scattered radiation. Partial volume correction (PVC) was not performed. After each PET scan, a CT scan was acquired for anatomic co-registration. To facilitate PET and CT image co-registration, a special animal bed was employed which fits both the PET and CT scanners. The animals were under anesthesia and immobilized when moving between scanners as well as during both scans. The reconstructed PET and CT images were then manually co-registered through rigid transformation, by aligning natural landmarks (such as the animal limbs and the bed contour) using the AMIDE software (from sourceforge.net/amide).
Dynamic, whole-body PET and CT images were acquired on an eXplore VISTA small-animal PET (GE Healthcare, Little Chalfont, Buckinghamshire, UK) and an X-SPECT small SPECT/CT system (Gamma Medica Ideas, Northridge, Calif.), respectively.

[2] = baboon PET imaging and pharmacokinetics; format: in vivo, Papio anubis (baboon)
Source text: A male Papio anubis (8 y, 27.1 kg) was used to study the biodistribution of ^86Y-6. The baboon was positioned supine during image acquisition. For attenuation correction a low-dose CT image was acquired immediately before the first and last PET images. PET and CT images were co-registered across time points using a Hermes workstation (Hermes Medical Solutions, Greenville, S.C.). Fourteen source organ contours were delineated on the CT with the aid of fused PET/CT images. Decay-corrected mean activity concentrations (Bq/g) were extracted for each source organ from the PET images. Contours were drawn on the PET images of the kidneys, renal cortices, and prostate. The decay-corrected total activity per organ quantified within the PET images had nearly one-to-one correspondence with the administered radioactivity for the first six time points (1 h or less), which confirmed that the administered radioactivity was fully accounted for on the PET images, after which the total amount was less than the administered amount due to voiding. The total amount of radioactivity quantified in each of the PET images was used to obtain the whole-body retention kinetics.
Nine static PET images were acquired at 5, 10, 15, 20, 35 min, 1, 2, 3.5 and 23 h after intravenous administration of 80.7 MBq (2.2 mCi) of ^86Y-6 as a bolus. Images were acquired in 2D mode on a Discovery Rx VCT scanner (GE Healthcare).
For each time-point, the activity concentration (in Bq/cm^3) was measured in each of the 14 delineated organs and multiplied by the organ volume to obtain the total activity per time point per organ. The measured values were then decay-corrected and divided by the baboon organ mass, determined by the CT density and volume from the drawn contours, and the injected radioactivity to obtain the fraction of initial radioactivity per gram (FIA/g) for each time point and each organ. The baboon FIA/g values were then converted to human FIA (per organ) using the following equation (Schwartz et al., 2011; Woodard et al., 1975): […]
That approach assumes that the concentration of activity in a particular tissue relative to the overall concentration in the whole body is preserved across species (i.e., organ concentration/total body concentration is the same for baboon and man). The resulting human FIA values were plotted as a function of time (nine data points) for each organ and fit to a bi-exponential expression: FIA(t)=A1.e^−(λ1^bio^.t)+A2.e^−(Δ2^bio^.t) (2)

[3] = bi-exponential fit, listed as [^86Y]6
[4] = whole-body retention kinetics fit

For `O=C([O-])CN1CCN(CC(=O)[O-])CCN(CC(=O)[O-])C(Cc2ccc(NC(=S)NCCCCNC(=O)CCCCCCC(=O)NCCCC[C@H](NC(=O)N[C@@H](CCC(=O)O)C(=O)O)C(=O)O)cc2)CN(CC(=O)[O-])CC1.[86Y+3]` (stereo partly shown) [^86Y-6], the “earliest time of clear delineation of PSMA+ PC-3 PIP tumor” value [1] was 15 min, the “percent of kidney radioactivity cleared in the rapid phase” value ([2]; baboon) was “Sixty-eight” and the “percent of renal cortex radioactivity cleared in the rapid phase” value ([2]; baboon) was 66%. For the same molecule, the “highest uptake in kidneys” value ([2]; baboon, about 25 min post-injection) was 8 % ID/g, the “Brain, biological half-life of A1” value ([2]; bi-exponential fit) was 0.71 h and the “Brain, biological half-life of A2” value ([2]; bi-exponential fit) was 8.71 h. For the same molecule, the “Brain, fitted parameter A1” value ([2]; bi-exponential fit) was 0.53 % ID, the “Brain, fitted parameter A2” value ([2]; bi-exponential fit) was 0.11 % ID and the “Heart, biological half-life of A1” value ([2]; bi-exponential fit) was 0.29 h. For the same molecule, the “Heart, biological half-life of A2” value ([2]; bi-exponential fit) was 6.49 h, the “Heart, fitted parameter A1” value ([2]; bi-exponential fit) was 1.55 % ID and the “Heart, fitted parameter A2” value ([2]; bi-exponential fit) was 0.29 % ID. The “Kidneys, biological half-life of A1” value ([2]; bi-exponential fit) was 0.84 h, the “Kidneys, biological half-life of A2” value ([2]; bi-exponential fit) was 16.6 h and the “Kidneys, fitted parameter A1” value ([2]; bi-exponential fit) was 6.36 % ID. The “Kidneys, fitted parameter A2” value ([2]; bi-exponential fit) was 2.98 % ID, the “Large intestine, biological half-life of A1” value ([2]; bi-exponential fit) was 0.25 h and the “Large intestine, biological half-life of A2” value ([2]; bi-exponential fit) was 5.97 h. For the same molecule, the “Large intestine, fitted parameter A1” value ([2]; bi-exponential fit) was 0.45 % ID, the “Large intestine, fitted parameter A2” value ([2]; bi-exponential fit) was 0.30 % ID and the “Liver, biological half-life of A1” value ([2]; bi-exponential fit) was 0.38 h. The “Liver, biological half-life of A2” value ([2]; bi-exponential fit) was 7.71 h, the “Liver, fitted parameter A1” value ([2]; bi-exponential fit) was 4.77 % ID and the “Liver, fitted parameter A2” value ([2]; bi-exponential fit) was 1.52 % ID. The “Lungs, biological half-life of A1” value ([2]; bi-exponential fit) was 0.42 h, the “Lungs, biological half-life of A2” value ([2]; bi-exponential fit) was 6.29 h and the “Lungs, fitted parameter A1” value ([2]; bi-exponential fit) was 2.78 % ID. The “Lungs, fitted parameter A2” value ([2]; bi-exponential fit) was 1.27 % ID, the “Muscle, biological half-life of A1” value ([2]; bi-exponential fit) was 1.98 h and the “Muscle, biological half-life of A2” value ([2]; bi-exponential fit) was 69.31 h. For the same molecule, the “Muscle, fitted parameter A1” value ([2]; bi-exponential fit) was 14.98 % ID, the “Muscle, fitted parameter A2” value ([2]; bi-exponential fit) was 0.56 % ID and the “Pancreas, biological half-life of A1” value ([2]; bi-exponential fit) was 0.66 h. For the same molecule, the “Pancreas, biological half-life of A2” value ([2]; bi-exponential fit) was 10.60 h, the “Pancreas, fitted parameter A1” value ([2]; bi-exponential fit) was 0.24 % ID and the “Pancreas, fitted parameter A2” value ([2]; bi-exponential fit) was 0.05 % ID. The “Prostate, biological half-life of A1” value ([2]; bi-exponential fit) was 0.67 h, the “Prostate, biological half-life of A2” value ([2]; bi-exponential fit) was 5.58 h and the “Prostate, fitted parameter A1” value ([2]; bi-exponential fit) was 0.02 % ID. For the same molecule, the “Prostate, fitted parameter A2” value ([2]; bi-exponential fit) was 0.02 % ID, the “Renal cortex, biological half-life of A1” value ([2]; bi-exponential fit) was 1.1 h and the “Renal cortex, biological half-life of A2” value ([2]; bi-exponential fit) was “about 19 h”. The “Renal cortex, fitted parameter A1” value ([2]; bi-exponential fit) was 4.23 % ID, the “Renal cortex, fitted parameter A2” value ([2]; bi-exponential fit) was 2.16 % ID and the “Salivary glands, biological half-life of A1” value ([2]; bi-exponential fit) was 1.56 h. For the same molecule, the “Salivary glands, biological half-life of A2” value ([2]; bi-exponential fit) was 4.47 h, the “Salivary glands, fitted parameter A1” value ([2]; bi-exponential fit) was 0.30 % ID and the “Salivary glands, fitted parameter A2” value ([2]; bi-exponential fit) was 0.08 % ID. The “Small intestine, biological half-life of A1” value ([2]; bi-exponential fit) was 0.26 h, the “Small intestine, biological half-life of A2” value ([2]; bi-exponential fit) was 10.17 h and the “Small intestine, fitted parameter A1” value ([2]; bi-exponential fit) was 0.24 % ID. For the same molecule, the “Small intestine, fitted parameter A2” value ([2]; bi-exponential fit) was 0.10 % ID, the “Spleen, biological half-life of A1” value ([2]; bi-exponential fit) was 1.49 h and the “Spleen, biological half-life of A2” value ([2]; bi-exponential fit) was 18.74 h. For the same molecule, the “Spleen, fitted parameter A1” value ([2]; bi-exponential fit) was 0.12 % ID, the “Spleen, fitted parameter A2” value ([2]; bi-exponential fit) was 0.04 % ID and the “Stomach, biological half-life of A1” value ([2]; bi-exponential fit) was 0.46 h. For the same molecule, the “Stomach, biological half-life of A2” value ([2]; bi-exponential fit) was 6.14 h, the “Stomach, fitted parameter A1” value ([2]; bi-exponential fit) was 0.15 % ID and the “Stomach, fitted parameter A2” value ([2]; bi-exponential fit) was 0.09 % ID. The “Kidneys, biological half-life of A2” value [2, 3] was 16.62 h, the “Renal cortex, biological half-life of A2” value [2, 3] was 19.19 h and the “WB retention, biological half-life of A1” value [2, 4] was 5.62 h. For the same molecule, the “WB retention, fitted parameter A1” value [2, 4] was 100.00 % ID.
